Our source for the melting point and herbicidal activity values is patent US7115545B1, “Tricyclic benzoylpyrazole derivatives used as a herbicide” (BASF Aktiengesellschaft, priority 1999, dated 2006).

Series [1] has as its system Veronica ssp. The series can be described thus: greenhouse post-emergence herbicidal test. Format: in vivo. Conditions: post-emergence method, application rates of 0.5 or 0.25 kg/ha. An excerpt: (§1) The seeds of the test plants were sown separately for each species. For post-emergence treatment, the test plants were first grown to a plant height of from 3 to 15 cm, depending on the plant habit, and only then treated with the active compounds which had been suspended or emulsified in water. For this purpose, the test plants were either sown directly and grown in the same containers, or they were first grown separately as seedlings and transplanted into the test containers a few days prior to the treatment. The application rate for the post-emergence treatment was 0.5 or 0.25 kg of a.s./ha. Depending on the species, the plants were kept at 10–25° C. or 20–35° C. The test period extended over 2 to 4 weeks. During this time, the plants were tended, and their response to the individual treatments was evaluated. Evaluation was carried out using a scale from 0 to 100. 100 means no emergence of the plants, or complete destruction of at least the above-ground parts, and 0 means no damage, or normal course of growth. The plants used in the greenhouse trials were of the following species: [table]

The test system of series [2] is Chenopodium album. The series can be described thus: greenhouse post-emergence herbicidal test. Format: in vivo. Particulars: post-emergence method, application rates of 0.5 or 0.25 kg/ha, Chenopodium album (lambsquarters).
Description: as §1

Series [3] has as its system Setaria viridis. The series can be described thus: greenhouse post-emergence herbicidal test. Type of series: in vivo. Conditions: post-emergence method, application rates of 0.5 or 0.25 kg/ha, Setaria viridis (green foxtail).
Description: as §1

Series [4] concerns Echinochloa crusgalli. The series can be described thus: greenhouse post-emergence herbicidal test. Conditions: post-emergence method, application rates of 0.5 or 0.25 kg/ha, Echinochloa crusgalli (barnyardgrass). Format: in vivo.
Description: as §1

Series [5] relates to Solanum nigrum. In words: greenhouse post-emergence herbicidal test. Type of series: in vivo. Conditions: post-emergence method, application rates of 0.5 or 0.25 kg/ha, Solanum nigrum (black nightshade).
Description: as §1

The molecule `Cn1ncc(C(=O)c2ccc(S(C)(=O)=O)c3c2CC2CON=C32)c1OC(=O)c1ccccc1` (stereo not drawn) [compound 2.2, (5-Phenylcarbonyloxy-1-methyl-1H-pyrazol-4-yl)-(8-methyl-sulfonyl-3a,4-dihydro-3H-indeno[1,2-c]isoxazol-5-yl)methanone] showed a melting point of 86 to 93 °C. For the same molecule, the herbicidal activity result in series [1] is “very good activity”. For the same molecule, the herbicidal activity entry in series [2] is on record as “very good activity”. Also, the herbicidal activity result in series [3] was “very good activity”. Also, the herbicidal activity result in series [4] is reported as “very good activity”. Moreover, the herbicidal activity entry in series [5] is given as “very good activity”.
